Measured values: patent publication EP0167459B1, “2-Amino oxazolines and process for their preparation” (priority 1984, dated 1986)

Key:
[1] = molecular target: NAd (Homo sapiens, UniProt P23975); test: Inhibition of neurotransmitter uptake in vitro, noradrenaline; type: cell-based; conditions: NAd = Noradrénaline; for IC50: read-out: UPTAKE NEUROTRANSMETTEUR IN VITRO IC 50 M NAd
[2] = molecular target: DA (Homo sapiens, UniProt Q01959); test: Inhibition of neurotransmitter uptake in vitro, dopamine; type: cell-based; conditions: for IC50: read-out: UPTAKE NEUROTRANSMETTEUR IN VITRO IC 50 M DA; for UPTAKE NEUROTRANSMETTEUR IN VITRO IC 50 M DA: DA = Dopamine
[3] = molecular target: 5-HT (Homo sapiens, UniProt P31645); test: Inhibition of neurotransmitter uptake in vitro, 5-HT; type: cell-based; conditions: for IC50: 5-HT = (so in the source), read-out: UPTAKE NEUROTRANSMETTEUR IN VITRO IC 50 M 5-HT
[4] = molecular target: RECEPTEURS α2; test: Affinity for the α2 receptor in vitro; type: binding; conditions: read-out: AFFINITE RECEPTEURS α2 IN VITRO IC […]; read-out: […] […] α2 IN VITRO IC 50 M
[5] = test system: récepteurs α₂; conditions: lizard; Carter and Shuster, Br. J. Pharmacol. (1982), 75, 169-176; cited from earlier work
[6] = mouse, doses 0,75 à 20 mg/kg
[7] = Motor activity (exploration) in the mouse; type: in vivo, souris
[8] = Cardiovascular activity in the anaesthetised dog; type: in vivo, chien
Description: Les 2-amino-oxazolines selon l'invention se caractérisent par des propriétés pharmacologiques intéressantes, et notamment par des propriétés anti-dépressives, hypertensives et analeptiques vasculaires. Elles agissent sur les récepteurs α₂, soit par un phénomène de bloquage, soit par un effet agoniste. […] Cet effet s'apparente donc à celui de la Yohimbine.
Chez le chien anesthésié, l'injection des produits selon l'invention provoque une hypertension durable, à des doses relativement faibles, allant de 0,05 à 1 mg/kg I.V.

[9] = in vivo

Chain of 5-HT (P31645 whole entry): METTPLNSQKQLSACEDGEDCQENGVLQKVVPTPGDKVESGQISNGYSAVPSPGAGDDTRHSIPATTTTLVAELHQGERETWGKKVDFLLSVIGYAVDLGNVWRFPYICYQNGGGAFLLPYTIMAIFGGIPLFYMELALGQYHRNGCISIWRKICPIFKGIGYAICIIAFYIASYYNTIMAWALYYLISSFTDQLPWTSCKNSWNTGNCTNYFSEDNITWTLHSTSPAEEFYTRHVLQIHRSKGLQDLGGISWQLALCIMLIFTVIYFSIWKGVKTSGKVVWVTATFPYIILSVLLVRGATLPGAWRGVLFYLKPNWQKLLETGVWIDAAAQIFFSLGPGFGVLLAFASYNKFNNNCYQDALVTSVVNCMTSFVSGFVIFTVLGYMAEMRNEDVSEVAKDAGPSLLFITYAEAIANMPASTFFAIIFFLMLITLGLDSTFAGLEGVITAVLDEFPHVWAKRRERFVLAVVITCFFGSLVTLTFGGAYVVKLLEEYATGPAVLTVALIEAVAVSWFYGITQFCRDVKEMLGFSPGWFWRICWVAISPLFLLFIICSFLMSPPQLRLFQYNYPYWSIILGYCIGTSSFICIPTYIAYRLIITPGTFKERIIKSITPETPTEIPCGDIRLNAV
Chain of DA (Q01959 whole entry): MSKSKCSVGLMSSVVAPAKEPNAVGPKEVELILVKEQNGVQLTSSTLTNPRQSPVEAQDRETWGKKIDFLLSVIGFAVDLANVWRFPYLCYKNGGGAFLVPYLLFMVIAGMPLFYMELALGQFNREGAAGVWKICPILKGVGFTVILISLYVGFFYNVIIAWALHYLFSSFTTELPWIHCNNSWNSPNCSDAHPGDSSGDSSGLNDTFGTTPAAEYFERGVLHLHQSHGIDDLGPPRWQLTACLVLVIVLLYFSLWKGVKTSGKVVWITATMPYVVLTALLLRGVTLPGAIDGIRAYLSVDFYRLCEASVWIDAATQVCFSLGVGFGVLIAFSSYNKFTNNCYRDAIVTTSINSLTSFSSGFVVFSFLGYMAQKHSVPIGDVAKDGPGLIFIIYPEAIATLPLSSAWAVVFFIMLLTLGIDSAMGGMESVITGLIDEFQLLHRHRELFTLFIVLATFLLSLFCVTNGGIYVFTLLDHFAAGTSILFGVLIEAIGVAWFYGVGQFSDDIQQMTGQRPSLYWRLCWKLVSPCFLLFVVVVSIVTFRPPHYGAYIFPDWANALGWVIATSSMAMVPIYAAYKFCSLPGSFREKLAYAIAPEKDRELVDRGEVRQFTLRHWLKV
Chain of NAd (P23975 whole entry): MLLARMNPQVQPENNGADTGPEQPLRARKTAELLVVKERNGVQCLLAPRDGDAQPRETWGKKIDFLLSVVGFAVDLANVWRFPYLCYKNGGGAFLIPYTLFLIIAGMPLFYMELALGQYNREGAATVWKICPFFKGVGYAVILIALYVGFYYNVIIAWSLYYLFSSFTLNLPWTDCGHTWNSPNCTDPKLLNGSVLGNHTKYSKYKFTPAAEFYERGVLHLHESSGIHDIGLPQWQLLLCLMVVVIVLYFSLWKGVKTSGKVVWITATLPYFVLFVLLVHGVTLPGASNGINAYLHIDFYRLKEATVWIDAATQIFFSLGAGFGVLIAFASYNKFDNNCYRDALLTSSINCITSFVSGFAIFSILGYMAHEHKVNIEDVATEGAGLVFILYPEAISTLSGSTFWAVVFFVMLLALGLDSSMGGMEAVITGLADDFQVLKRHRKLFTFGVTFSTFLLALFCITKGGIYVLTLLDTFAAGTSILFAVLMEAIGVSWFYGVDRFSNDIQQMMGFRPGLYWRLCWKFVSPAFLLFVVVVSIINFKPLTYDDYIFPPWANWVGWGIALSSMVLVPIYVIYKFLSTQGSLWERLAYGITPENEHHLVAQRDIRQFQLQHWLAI

Row | Compound | IC50 [2] [nM] | IC50 [3] [nM] | IC50 [4] [nM] | IC50 [1] [nM] | also measured
1 | NC1=NC(COc2ccccc2)CO1 (racemic) [ex. 6, 4-phénoxy-méthyl 2-amino-oxazoline] | > 10000 | > 10000 |  |  | UPTAKE NEUROTRANSMETTEUR IN VITRO IC 50 M NAd [1]: nul à 10^-5
2 | NC1=NC(Cc2ccc(Cl)cc2)CO1 (racemic) [ex. 10] | 2300 | 4000 | 44 | 4000 | 
3 | NC1=NC(Cc2ccccc2Cl)CO1 (racemic) [ex. 11] | > 10000 | > 10000 | 2.7 | 2500 | 
4 | NC1=NC(CCc2ccccc2)CO1 (racemic) [ex. 13] |  |  | > 100 | 230 | UPTAKE NEUROTRANSMETTEUR IN VITRO IC 50 M DA [2]: nul à 10^-6; UPTAKE NEUROTRANSMETTEUR IN VITRO IC 50 M 5-HT ([3]; 5-HT = 5-hydroxytryptophane (so in the source)): nul à 10^-6
5 | NC1=NC(Cc2ccc(O)cc2)CO1 (racemic) [ex. 20] |  |  | > 100 |  | 
6 | NC1=NC(Cc2ccccc2)CO1 (single isomer, unassigned) [ex. 12] | 4000 | > 10000 | 4 | 400 | 
7 | NC1=NC(Cc2ccccc2Cl)CO1 (single isomer, unassigned) [ex. 23] |  |  | 3.3 |  | 
8 | Clc1cccc(Cl)c1N=C1NCCN1 [CLONIDINE] |  |  | 1 |  | noircissement qui résulte du traitement par le MSH [5]: antagonisé; température centrale [6]: baisse de température; exploration [7]: diminuent l'exploration; activité vasomotrice (vasodilatation ou vasoconstriction primaire) [8]: activité vasoconstrictive d'emblée; activité diabétogène [9]: activité diabétogène expérimentale
9 | c1ccc2c(c1)OCC(C1=NCCN1)O2 (centres unmarked) [IDAZOXAN, reference compound] |  |  | 29 |  | 
10 | Cc1ccc(N(CC2=NCCN2)c2cccc(O)c2)cc1 [PHENTOLAMINE, reference compound] |  |  | 22 |  | 
11 | NC1=NC(COc2ccccc2Cl)CO1 (centres unmarked) [ex. 5, 4-(2-chlorophénoxyméthyl) 2-amino-oxazoline] | 7200 | 2800 | 33 | > 10000 | 
12 | COc1ccc(OCC2COC(N)=N2)cc1 (centres unmarked) [ex. 7, 4-(4-méthoxyphenoxymethyl) 2-amino-oxazoline] |  | > 10000 | > 100 |  | UPTAKE NEUROTRANSMETTEUR IN VITRO IC 50 M NAd [1]: nul à 10^-5; UPTAKE NEUROTRANSMETTEUR IN VITRO IC 50 M DA [2]: nul à 10^-5
13 | NC1=NC(COCc2ccccc2)CO1 (centres unmarked) [ex. 8, 4-(benzyloxy-méthyl) 2-amino-oxazoline] |  | > 10000 | > 100 |  | UPTAKE NEUROTRANSMETTEUR IN VITRO IC 50 M NAd [1]: nul à 10^-5; UPTAKE NEUROTRANSMETTEUR IN VITRO IC 50 M DA [2]: nul à 10^-5
